Experimental data published in patent EP2818472A1, “Imidazo[4,5-c]pyridine and pyrrolo[3,2-c]pyridine compounds as G-protein-coupled receptor kinase 5 (GRK5) modulators” (Max-Planck-Gesellschaft zur Förderung der Wissenschaften …, priority 2013, dated 2014).

The compounds below were run on beta-TC6 cells (assay: Insulin HTRF assay (relative activity Ar) in beta-TC6 cells). Conditions: Mus musculus, Beta-TC6, 4 h, insulin HTRF, supernatant of beta-TC6 cells, incubation with test compound at 37°C for 2, 3, 4h; read-out: Ar (relative activity).
Type: cell-based, mouse
Outline: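 beta-TC6 cells (15k/well, seeded 24 or 48 h) washed, then exposed to compound in induction buffer (0.5% DMSO final) for 2, 3 or 4 h at 37°C.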

Question: How did the Emax turn out when `CC(=O)c1cccc(Nc2cc3[nH]c(-c4cncn4C)cc3cn2)c1` [Compound 107, 1-[3-[[2-(3-methylimidazol-4-yl)-1H-pyrrolo[3,2-c]pyridin-6-yl]amino]phenyl]ethanone] was run?
Answer: 50 to 100%

Question: Which Emax does the source give for `Cn1cncc1-c1cc2cnc(Nc3cccc(F)c3)cc2[nH]1` [Compound 108, N-(3-fluorophenyl)-2-(3-methylimidazol-4-yl)-1H-pyrrolo[3,2-c]pyridin-6-amine] here?
Answer: 50 to 100%

Question: For `CC(C)Oc1ccc(Nc2cc3[nH]c(-c4cncn4C)cc3cn2)cc1` [Compound 109, N-(4-isopropoxyphenyl)-2-(3-methylimidazol-4-yl)-1H-pyrrolo[3,2-c]pyridin-6-amine], which Emax is on record?
Answer: 50 to 100%

Question: `COc1cccc(Nc2cc3[nH]c(-c4cn[nH]c4)cc3cn2)c1` [Compound 110, N-(3-methoxyphenyl)-2-(1H-pyrazol-4-yl)-1H-pyrrolo[3,2-c]pyridin-6-amine] was tested. Which Emax did it give?
Answer: > 100%

Question: Which Emax does the source give for `COc1ccc(Nc2cc3[nH]c(-c4cn[nH]c4)cc3cn2)cc1OC` [Compound 111, N-(3,4-dimethoxyphenyl)-2-(1H-pyrazol-4-yl)-1H-pyrrolo[3,2-c]pyridin-6-amine] here?
Answer: > 100%

Question: How did the Emax turn out when `CN(C)c1cccc(Nc2cc3[nH]c(-c4cn[nH]c4)cc3cn2)c1` [Compound 112, N1,N1-dimethyl-N3-[2-(1H-pyrazol-4-yl)-1H-pyrrolo[3,2-c]pyridin-6-yl]benzene-1,3-diamine] was run?
Answer: 50 to 100%

Question: How did the Emax turn out when `Cc1cccc(Nc2cc3[nH]c(-c4cn[nH]c4)cc3cn2)c1` [Compound 113, N-(m-tolyl)-2-(1H-pyrazol-4-yl)-1H-pyrrolo[3,2-c]pyridin-6-amine] was run?
Answer: 50 to 100%

Question: With `Fc1ccc(Nc2cc3[nH]c(-c4cn[nH]c4)cc3cn2)cc1` [Compound 114, N-(4-fluorophenyl)-2-(1H-pyrazol-4-yl)-1H-pyrrolo[3,2-c]pyridin-6-amine] as the compound, how does the Emax read?
Answer: 50 to 100%

Question: For `c1ccc(Nc2cc3[nH]c(-c4cn[nH]c4)cc3cn2)nc1` [Compound 115, 2-(1H-pyrazol-4-yl)-N-(2-pyridyl)-1H-pyrrolo[3,2-c]pyridin-6-amine], which Emax is on record?
Answer: > 100%

Question: With `COc1cc(Nc2cc3[nH]c(-c4cn[nH]c4)cc3cn2)cc(C(F)(F)F)c1` [Compound 116, N-[3-methoxy-5-(trifluoromethyl)phenyl]-2-(1H-pyrazol-4-yl)-1H-pyrrolo[3,2-c]pyridin-6-amine] as the compound, how does the Emax read?
Answer: 0 to 30%

Question: How did the Emax turn out when `CC(=O)Nc1cccc(Nc2cc3[nH]c(-c4cn[nH]c4)cc3cn2)c1` [Compound 117, N-[3-[[2-(1H-pyrazol-4-yl)-1H-pyrrolo[3,2-c]pyridin-6-yl]amino]phenyl]acetamide] was run?
Answer: > 100%

Question: For `CC(=O)c1cccc(Nc2cc3[nH]c(-c4cn[nH]c4)cc3cn2)c1` [Compound 118, 1-[3-[[2-(1 H-pyrazol-4-yl)-1H-pyrrolo[3,2-c]pyridin-6-yl]amino]phenyl]ethanone], which Emax is on record?
Answer: > 100%

Question: `Fc1cccc(Nc2cc3[nH]c(-c4cn[nH]c4)cc3cn2)c1` [Compound 119, N-(3-fluorophenyl)-2-(1H-pyrazol-4-yl)-1H-pyrrolo[3,2-c]pyridin-6-amine] was tested. Which Emax did it give?
Answer: 50 to 100%

Question: Which Emax does the source give for `CS(=O)(=O)c1ccc(Nc2cc3[nH]c(-c4cn[nH]c4)cc3cn2)cc1` [Compound 120, N-(4-methylsulfonylphenyl)-2-(1H-pyrazol-4-yl)-1H-pyrrolo[3,2-c]pyridin-6-amine] here?
Answer: > 100%

Question: `CC(=O)Nc1ccc(Nc2cc3[nH]c(-c4cnn(C)c4)cc3cn2)cc1` [Compound 121, N-[4-[[2-(1-methylpyrazol-4-yl)-1H-pyrrolo[3,2-c]pyridin-6-yl]amino]phenyl]acetamide] was tested. Which Emax did it give?
Answer: > 100%

Question: For `Cn1cc(-c2cc3cnc(Nc4ccc5c(c4)OCCO5)cc3[nH]2)cn1` [Compound 122, N-(2,3-dihydro-1,4-benzodioxin-6-yl)-2-(1-methylpyrazol-4-yl)-1H-pyrrolo[3,2-c]pyridin-6-amine], which Emax is on record?
Answer: 30 to 50%

Question: With `COc1ccc(Nc2cc3[nH]c(-c4cnn(C)c4)cc3cn2)cc1OC` [Compound 123, N-(3,4-dimethoxyphenyl)-2-(1-methylpyrazol-4-yl)-1H-pyrrolo[3,2-c]pyridin-6-amine] as the compound, how does the Emax read?
Answer: > 100%

Question: With `CC(=O)c1cccc(Nc2cc3[nH]c(-c4cnn(C)c4)cc3cn2)c1` [Compound 124, 1-[3-[[2-(1-methylpyrazol-4-yl)-1H-pyrrolo[3,2-c]pyridin-6-yl]amino]phenyl]ethanone] as the compound, how does the Emax read?
Answer: > 100%

Question: With `COc1cc(Nc2cc3c(cn2)cc(-c2cnn(C)c2)n3C)cc(OC)c1OC` [Compound 125, 1-methyl-2-(1-methylpyrazol-4-yl)-N-(3,4,5-trimethoxyphenyl)pyrrolo[3,2-c]pyridin-6-amine] as the compound, how does the Emax read?
Answer: > 100%

Question: `CC(=O)Nc1ccc(Nc2cc3c(cn2)cc(-c2cnn(C)c2)n3C)cc1` [Compound 126, N-[4-[[1-methyl-2-(1-methylpyrazol-4-yl)pyrrolo[3,2-c]pyridin-6-yl]amino]phenyl]acetamide] was tested. Which Emax did it give?
Answer: 50 to 100%

Question: For `COc1cccc(Nc2cc3c(cn2)cc(-c2cnn(C)c2)n3C)c1` [Compound 127, N-(3-methoxyphenyl)-1-methyl-2-(1-methylpyrazol-4-yl)pyrrolo[3,2-c]pyridin-6-amine], which Emax is on record?
Answer: 50 to 100%

Question: Which Emax does the source give for `Cn1cc(-c2cc3cnc(Nc4ccc5c(c4)OCCO5)cc3n2C)cn1` [Compound 128, N-(2,3-dihydro-1,4-benzodioxin-6-yl)-1-methyl-2-(1-methylpyrazol-4-yl)pyrrolo[3,2-c]pyridin-6-amine] here?
Answer: 50 to 100%

Question: For `COc1ccc(Nc2cc3c(cn2)cc(-c2cnn(C)c2)n3C)cc1OC` [Compound 129, N-(3,4-dimethoxyphenyl)-1-methyl-2-(1-methylpyrazol-4-yl)pyrrolo[3,2-c]pyridin-6-amine], which Emax is on record?
Answer: > 100%

Question: Which Emax does the source give for `COc1ccc(Nc2cc3c(cn2)cc(-c2cnn(C)c2)n3C)cn1` [Compound 130, N-(6-methoxy-3-pyridyl)-1-methyl-2-(1-methylpyrazol-4-yl)pyrrolo[3,2-c]pyridin-6-amine] here?
Answer: > 100%

Question: How did the Emax turn out when `Cn1cc(-c2cc3cnc(Nc4cccnc4)cc3n2C)cn1` [Compound 131, 1-methyl-2-(1-methylpyrazol-4-yl)-N-(3-pyridyl)pyrrolo[3,2-c]pyridin-6-amine] was run?
Answer: > 100%

Question: `Cn1cc(-c2cc3cnc(Nc4ccccc4)cc3n2C)cn1` [Compound 132, 1-methyl-2-(1-methylpyrazol-4-yl)-N-phenyl-pyrrolo[3,2-c]pyridin-6-amine] was tested. Which Emax did it give?
Answer: 50 to 100%

Question: With `CN1CCN(c2ccc(Nc3cc4c(cn3)cc(-c3cnn(C)c3)n4C)cc2)CC1` [Compound 133, 1-methyl-N-[4-(4-methylpiperazin-1-yl)phenyl]-2-(1-methylpyrazol-4-yl)pyrrolo[3,2-c]pyridin-6-amine] as the compound, how does the Emax read?
Answer: 50 to 100%

Question: `CN(C)c1cccc(Nc2cc3c(cn2)cc(-c2cnn(C)c2)n3C)c1` [Compound 134, N1,N1-dimethyl-N3-[1-methyl-2-(1-methylpyrazol-4-yl)pyrrolo[3,2-c]pyridin-6-yl]benzene-1,3-diamine] was tested. Which Emax did it give?
Answer: 50 to 100%

Question: With `Cn1cc(-c2cc3cnc(Nc4ccncc4)cc3n2C)cn1` [Compound 135, 1-methyl-2-(1-methylpyrazol-4-yl)-N-(4-pyridyl)pyrrolo[3,2-c]pyridin-6-amine] as the compound, how does the Emax read?
Answer: 50 to 100%

Question: How did the Emax turn out when `Cc1cccc(Nc2cc3c(cn2)cc(-c2cnn(C)c2)n3C)c1` [Compound 136, 1-methyl-2-(1-methylpyrazol-4-yl)-N-(m-tolyl)pyrrolo[3,2-c]pyridin-6-amine] was run?
Answer: 50 to 100%

Question: How did the Emax turn out when `Cn1cc(-c2cc3cnc(Nc4ccc(F)cc4)cc3n2C)cn1` [Compound 138, N-(4-fluorophenyl)-1-methyl-2-(1-methylpyrazol-4-yl)pyrrolo[3,2-c]pyridin-6-amine] was run?
Answer: 50 to 100%

Question: With `Cn1cc(-c2cc3cnc(Nc4ccccn4)cc3n2C)cn1` [Compound 139, 1-methyl-2-(1-methylpyrazol-4-yl)-N-(2-pyridyl)pyrrolo[3,2-c]pyridin-6-amine] as the compound, how does the Emax read?
Answer: 50 to 100%

Question: How did the Emax turn out when `CN(c1ccccc1)c1cc2c(cn1)cc(-c1cnn(C)c1)n2C` [Compound 140, N,1-dimethyl-2-(1-methylpyrazol-4-yl)-N-phenyl-pyrrolo[3,2-c]pyridin-6-amine] was run?
Answer: 30 to 50%

Question: With `COC(=O)c1ccc(Nc2cc3c(cn2)cc(-c2cnn(C)c2)n3C)cc1` [Compound 141, methyl 4-[[1-methyl-2-(1-methylpyrazol-4-yl)pyrrolo[3,2-c]pyridin-6-yl]amino]benzoate] as the compound, how does the Emax read?
Answer: 50 to 100%

Question: With `Cn1cc(-c2cc3cnc(Nc4ccc(C#N)cc4)cc3n2C)cn1` [Compound 142, 4-[[1-methyl-2-(1-methylpyrazol-4-yl)pyrrolo[3,2-c]pyridin-6-yl]amino]benzonitrile] as the compound, how does the Emax read?
Answer: 50 to 100%

Question: Which Emax does the source give for `Cn1cc(-c2cc3cnc(Nc4ccc5c(c4)OCO5)cc3n2C)cn1` [Compound 143, N-(1,3-benzodioxol-5-yl)-1-methyl-2-(1-methylpyrazol-4-yl)pyrrolo[3,2-c]pyridin-6-amine] here?
Answer: > 100%

Question: `Cn1cc(-c2cc3cnc(Nc4cccc(O)c4)cc3n2C)cn1` [Compound 144, 3-[[1-methyl-2-(1-methylpyrazol-4-yl)pyrrolo[3,2-c]pyridin-6-yl]amino]phenol] was tested. Which Emax did it give?
Answer: > 100%

Question: How did the Emax turn out when `Cn1cc(-c2cc3cnc(N4CCOCC4)cc3n2C)cn1` [Compound 145, 4-[1-methyl-2-(1-methylpyrazol-4-yl)pyrrolo[3,2-c]pyridin-6-yl]morpholine] was run?
Answer: > 100%

Question: With `Cn1cc(-c2cc3cnc(Nc4cccc(OC(F)(F)F)c4)cc3n2C)cn1` [Compound 146, 1-methyl-2-(1-methylpyrazol-4-yl)-N-[3-(trifluoromethoxy)phenyl]pyrrolo[3,2-c]pyridin-6-amine] as the compound, how does the Emax read?
Answer: 30 to 50%

Question: For `Cn1cc(-c2cc3cnc(Nc4ccncn4)cc3n2C)cn1` [Compound 147, 1-methyl-2-(1-methylpyrazol-4-yl)-N-pyrimidin-4-yl-pyrrolo[3,2-c]pyridin-6-amine], which Emax is on record?
Answer: 50 to 100%

Question: With `CN(C)C(=O)c1ccc(Nc2cc3c(cn2)cc(-c2cnn(C)c2)n3C)cc1` [Compound 148, N,N-dimethyl-4-[[1-methyl-2-(1-methylpyrazol-4-yl)pyrrolo[3,2-c]pyridin-6-yl]amino]benzamide] as the compound, how does the Emax read?
Answer: > 100%

Question: `CC(=O)Nc1cccc(Nc2cc3c(cn2)cc(-c2cnn(C)c2)n3C)c1` [Compound 149, N-[3-[[1-methyl-2-(1-methylpyrazol-4-yl)pyrrolo[3,2-c]pyridin-6-yl]amino]phenyl]acetamide] was tested. Which Emax did it give?
Answer: > 100%
